Results from US20080138280A1, “Composition and Methods For Inhibiting Cell Survival” (The Cleveland Clinic Foundation, priority 2003, published 2008).

How the values were obtained:
Assay type in all cases: cell-based, human
[1] = system: CMN1 (normal melanocytes); test: Sulforhodamine B cell growth assay, normal cells
Method: (§1) Cell Culture treatments. Cells were maintained in RPMI or DMEM (Mediatech, Herndon, Va.) containing 5% fetal bovine serum (Hyclone, Logan, Utah) and 1% Antibiotic-Antimycotic (GEBCO, Invitrogen Carlsbad, Calif.) as recommended per the American Type Culture Collection media protocol for each cell line. Cells were maintained in 5% CO2 at 37° C. in a humidified tissue culture incubator. Primary non-tumorigenic […] cell lines (DMN-1 and CMN-1), and human foreskin fibroblasts (HFF; CCF, Cleveland, Ohio) were cultured in DMEM-F12 medium supplemented with 10% FBS. Cells were confirmed as mycoplasma free.
(§2) Sulforhodamine B Cell Growth Assay. Cells were harvested with 0.5% trypsin/0.53 mM EDTA, washed with PBS and resuspended in media containing 10% FBS. Cells were plated in 96-well plates in 0.2-ml aliquots. Cells were allowed to adhere to the plate for 4 h and then NO-Cbl was added in different concentrations to the assay plate. A minimum of four were performed for each treatment. After 16 h, various chemotherapeutic agents including cytokines were added at different concentrations. Growth was monitored by the sulforhodamine B (SRB; Sigma Chemical, St. Louis, Mo.) colorimetric assay. After 36 h, the medium was removed, and the cells were fixed with 10% trichloroacetic acid and stained with SRB. Bound dye was eluted from the cells with 10 mM Tris-HCl (pH 10.5) and absorbance was measured at 570 nm using a Lab systems Multiskan RC 96-well plate reader (Lab Systems Multiscan RC, Thermo Lab Systems, Franklin, Mass.). To quantify the growth of the cells, the experimental absorbance values (Aexp) were compared with initial absorbance readings representing the starting cell numbers (Aini). To determine the starting cell number, an additional 96-well plate was seeded with cells and fixed at the beginning of the experiment. After 5 days growth, the untreated control cells and drug treated cells were fixed and stained with SRB. The absorbances derived from the initial plate and from the untreated cells at the end of the growth period (Afin) were defined as 0% and 100% growth, respectively. The percentage control growth (100%×[Aexp−Aini]/[Afin−Aini]) is expressed as a percentage of untreated controls.
(§3) Anti-tumor effects of NO-Cbl, Apo2L/TRAIL, and the combination iii vitro. NO-Cbl enhances the anti-cellular effects of Apo2L/TRAIL against malignant Apo2L/TRAIL-resistant cell lines. First the antiproliferative effects of three melanoma lines A375, WM9, and WM3211 (previously reported to be resistant to Apo2L/TRAIL) were measured. Although Apo2L/TRAIL was used as the chemotherapeutic agents, a wide range of anti-cancer drugs and techniques would be enhanced by the NO based cobalamin compounds due to their effective inhibition of the cell survival mechanism. Such other chemotherapeutic agents are tested in the following examples. […] The SRB antiproliferative assay, used by the National Cancer Institute (NCI) to evaluate new chemotherapeutic agents was used herein. Median effect analysis was used to analyze drug interactions between NO-Cbl and Apo2L/TRAIL. Cells were pre-treated with NO-Cbl for 16 h followed by Apo2L/TRAIL for 24 h.
(§4) The effects of nitrosylcobalamin (NO-Cbl), Apo2L/TRAIL, and the combination on the proliferation of melanoma cell lines A375, WM9, and WM3211 and normal cell lines CMN1, DMN1, and fibroblasts were observed. Cells were treated with NO-Cbl, Apo2L/TRAIL, or pre-treated with NO-Cbl followed by Apo2L/TRAIL for three days, and growth was measured by the colorimetric sulforhodamine B assay. Data points were generated to represent the mean of four replicates±standard error of the mean (SEM). Synergy between NO-Cbl and Apo2L/TRAIL was determined by median effect analysis, (combination index >1 indicates antagonism, =1 indicates additivity, and <1 indicates synergy). The combination index is represented in FIG. 1 and as the combination index observed at the specified concentrations. […]

[2] = system: DMN1 (normal melanocytes); test: Sulforhodamine B cell growth assay, normal cells
Method: as §1, §2, §3, §4

normal fibroblasts = test: Sulforhodamine B cell growth assay, normal cells
Method: as §1, §2, §3, §4

A375 cells = test: TUNEL apoptosis assay; settings: single agent, 36 h; NO-Cbl 100 μM or Apo2L/TRAIL 100 ng/ml
Method: TUNEL assay. Please see FIG. 3. A375 cells were cultured for 36 h and exposed to various treatments (control, NO-Cbl, Apo2L/TRAIL and NO-Cbl+Apo2L/TRAIL. Apoptotic cells were detected by TUNEL (terminal deoxynucleotidyltransferase-mediated dUTP-biotin nick end-labeling) staining using a commercially available kit (APO-BRDU kit, BD-Pharmingen, San Diego, Calif.). Cells were processed according to the manufacturer's recommended protocol. The percentage of FITC-positive cells was analyzed by fluorescent activated cell scanning (FACS, Becton Dickinson, Facsvantage, San Diego, Calif.).
Cell line A375 has a defect in endogenous TRAIL gene induction therefore, additive cellular responses from exogenous TRAIL/Apo2L were avoided. TUNEL assays of A375 cells treated in vitro with NO-Cbl, Apo2L/TRAIL, or the combination were performed. FIG. 3 illustrates a TUNEL apoptosis assay in accordance with the present invention. A375 cells were treated with NO-Cbl, Apo-2L/TRAIL, and the combination. […] The highest levels of apoptosis were observed when cells were pre-treated with NO-Cbl followed by Apo2L/TRAIL treatment. Treatment for 36 h with NO-Cbl (100 μM) or Apo2L/TRAIL (100 ng/ml) induced 6.2% and 5.4% TUNEL-positive cells, respectively.

For nitrosylcobalamin [NO-Cbl], the “antiproliferative effect on normal cells” value [1] was “completely resistant”, the “antiproliferative effect on normal cells” value [2] was “completely resistant” and the “antiproliferative effect on normal cells” value (normal fibroblasts) was “completely resistant”. For the same substance, the TUNEL-positive cells (A375 cells) was 6.2%.
